In patent US11951089B2, “Pharmaceutical composition for preventing or treating wound or scar, comprising benzbromarone” (INNOVO THERAPEUTICS INC., priority 2020, dated 2024):

Experiments:
HSP47 = molecular target: T1, HSP47 (Homo sapiens, UniProt P50454); experiment: Evaluation of HSP47 activity (inhibition of collagen fibril formation, OD 340 nm); assay type: biochemical; conditions: collagen fibril formation in PBS pH 7.4, 37° C.; HSP47 9.45 μg/ml; Prism
T1 construct: purchased GenScript US
Method: Fibrils were formed by adding 180 ul of phosphate-buffered saline (PBS, pH 7.4) solution to 20 ul of collagen dissolved in acidic solution (collagen solution, UK), which was measured at a wavelength of 340 nm. HSP47 (GenScript US) was added at a concentration of 9.45 μg/ml to evaluate HSP47 activity as the degree to which it inhibits fibril formation. Test compound was added with concentrations of 100 μM to 1 μM and the inhibitory activity of HSP47 was calculated as a percentage.
The OD measured when collagen was placed in PBS buffer (pH 7.4) to form fibrils at 37° C. was taken as 100%, and the OD measured when HSP47 and collagen were placed together to form fibrils was taken as 0%. The percentage of inhibition of HSP47 by the test compound at each concentration was measured. IC50 values were calculated using Prism software (Graphpad, USA).

[1] = tested on: Hepatic stellate cell LX-2; experiment: Sirius red assay, TGF-β1-induced fibrosis in hepatic stellate cell LX-2; assay type: cell-based; conditions: LX-2, 10 ng/ml TGF-β1 co-treatment; compared to the TGF-β1 treatment group; BBR 30 μM, 10 μM (FIG. 3)
Method: (§1) Hepatic stellate LX-2 (Elabscience CH), lung epithelial A549 (ATCC US), liver stellate T6 (Elabscience, CH), or skin KEL FIB (ATCC, US) cells were cultured in 24-well tissue culture plates for 18 hours, followed by TGF-beta 10 ng/ml treatment, and then incubated with test compounds for 24 hours. Cells were washed with PBS, fixed with Bouin's solution, and washed twice with distilled water. The fixed cells were stained with Sirius red for 2 hours to observe cellular morphological changes, and then washed with 0.01 N HCl solution. Collagen-bound Sirius red was extracted with 0.1 N NaOH solution, which was then quantified at a wavelength of 570 nm. The inhibitory efficacy of each compound on collagen production was shown as a percentage.
Hepatic stellate cell LX-2 was treated with 10 ng/ml TGF-β1 (Gibco, US) to induce fibrosis, and the benzbromarone (BBR) treatment group was treated with TGF-β1 and benzbromarone (BBR) simultaneously. The extent of fibrosis inhibition was observed by fixing the cells and staining them with Sirius Red, a collagen-specific stain, to observe morphological changes (FIG. 2A, 2B), and quantified by extracting Sirius Red with 0.1 N NaOH solution (FIG. 3).

Hepatic stellate cell T6 = experiment: Sirius red assay, TGF-β1-induced fibrosis in hepatic stellate cell T6; assay type: cell-based; conditions: T6, 10 ng/ml TGF-β1 co-treatment, 30 μM; compared to the TGF-β1 treatment group
Method: as §1
(§2) Hepatic stellate cell T6 was treated with 10 ng/ml TGF-β1 to induce fibrosis, and the test compound was treated simultaneously. The extent of fibrosis inhibition was observed by fixing the cells and staining them with Sirius Red, a collagen-specific stain, to observe morphological changes (FIG. 4A, 4B), and quantified by extracting Sirius Red with 0.1 N NaOH solution (FIG. 5).

[2] = tested on: Lung epithelial cells A549; experiment: Sirius red assay, TGF-β1-induced fibrosis in lung epithelial cells A549; assay type: cell-based
Method: as §1
as §2, with “Lung epithelial cells A549 were” for “Hepatic stellate cell T6 was”, “staining” for “staining them”, “6A, 6B),” for “4A, 4B),”, “7).” for “5).”

[3] = tested on: KEL FIB cells isolated from keloid patients; experiment: Sirius red assay, TGF-β1-induced fibrosis in dermal fibroblast KEL FIB cells; assay type: cell-based
Method: as §1
as §2, with “KEL FIB cells (ATCC, USA) isolated from keloid patients were” for “Hepatic stellate cell T6 was”, “8A, 8B),” for “4A, 4B),”, “9).” for “5).”

[4] = tested on: carbon tetrachloride-induced liver fibrosis; experiment: Carbon tetrachloride-induced liver fibrosis model in mice; assay type: in vivo; conditions: CCl4 4 weeks, oral, twice a day (30 mg/kg BID)
Method: CCl4 was administered intraperitoneally at 50 uL (1:1 corn oil) per mouse three times a week for 4 weeks, and the test compound was suspended in 0.5% methylcellulose and administered orally at a dose of 5 ml/kg daily. As a positive control, obeticholic acid (Medkoo, US) was administered at a dose of 30 mg/kg. Body weight was measured once a week during the study period. 28 days after CCl4 administration, […] were inhalationally anesthetized with ether, and once anesthesia was confirmed, they were laparotomized and blood was drawn using a syringe from the posterior vena cava, and then the abdominal aorta and posterior vena cava were cut to exsanguinate/death. Blood was separated into serum and blood biochemical tests were performed. The liver was removed and weighed, the right lobe was fixed in 10% neutral buffered formalin solution, and the left lobe was divided in half and quick-frozen in liquid nitrogen. The quick-frozen samples were stored in an ultra-low temperature freezer set below −70° C. and used for 4-Hydroxyproline assay. The fixed tissues were subjected to the usual tissue processing procedures such as cutting, dehydration, paraffin embedding, and sectioning to prepare specimens for histopathological examination. Hematoxylin & Eosin (H&E) and Picrosirius red staining were performed, and histopathological changes were observed using optical microscope (Olympus BX53, Japan), and the area of fibrosis was analyzed. To determine the extent of carbon tetrachloride-induced liver tissue damage and liver function, plasma alanine aminotransferase (ALT) and bilirubin levels were analyzed in the plasma collected from autopsy using a blood biochemistry analyzer (7180 Hitachi, Japan). […] As liver fibrosis progresses, collagen is deposited in liver tissue. The content of 4-hydroxyproline in collagen in a carbon tetrachloride-induced injured liver tissue was analyzed to determine the extent of fibrosis.

[5] = tested on: burn-induced skin scarring; experiment: Inhibition of burn-induced skin scarring in minipigs; assay type: in vivo, Yucatan minipigs; conditions: 1% ointment once daily topical, day 45 of burn induction
Method: Yucatan minipigs that had been fasted for at least 8 hours were anesthetized using xylazine hydrochloride, midazolam, and propofol. After removing the hair on the trunk and back, the test area was disinfected with povidone iodine solution. Burns were induced by contacting the test area with a 400-gram stainless steel weight for 40 seconds. Burns were applied 2 cm from the spine and 4 cm apart between burn sites. The burn area should not exceed 3.5% of the total animal area. 15 days after burning, the scab was removed and the test compound was applied to the wounds once daily. At 45 days after burn induction, autopsy was performed, and the wounds were fixed in formalin solution and H&E staining was performed to measure the thickness of the dermal layer. The test compound was suspended in propylene glycol (Yakuri pure chemicals, Japan) and made into a homogeneous suspension using an ultrasonic cleaner, which was then diluted in lanolin (Merck, USA) and petroleum jelly (Merck, USA) under 60° C. water bath to prepare an ointment. Each component of the prepared ointment is 1% (w/w) of the test compound, 20% (w/w) of propylene glycol, 15% (w/w) of lanolin, and 64% (w/w) of vaseline. […] The reduction of scar size and wound in the BBR treatment group (BBR 1%) was clearly shown numerically. […] Also, the numerical measurement of the hypertrophy of the dermis layer was shown in FIG. 15B, and the hypertrophy of the dermis layer was the lowest in the BBR treatment group (BBR 1%).

[6] = 10 ng/ml TGF-β1, Sirius Red quantified

T1 sequence (P50454 19-418, species assumed): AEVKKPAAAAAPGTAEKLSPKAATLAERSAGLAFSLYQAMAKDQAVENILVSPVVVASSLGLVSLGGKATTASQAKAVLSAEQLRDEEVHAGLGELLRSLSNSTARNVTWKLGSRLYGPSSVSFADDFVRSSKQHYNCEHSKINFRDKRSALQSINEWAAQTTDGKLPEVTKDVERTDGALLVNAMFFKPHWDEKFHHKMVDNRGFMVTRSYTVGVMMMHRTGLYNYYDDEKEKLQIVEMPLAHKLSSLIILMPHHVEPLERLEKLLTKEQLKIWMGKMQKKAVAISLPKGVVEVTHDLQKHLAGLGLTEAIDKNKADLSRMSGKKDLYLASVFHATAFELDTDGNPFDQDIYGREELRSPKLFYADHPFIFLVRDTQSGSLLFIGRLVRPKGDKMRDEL

IC50 (HSP47): 133 µM | IC50 ([2]; Homo sapiens, A549, 10 ng/ml TGF-β1, Sirius Red OD 570 nm, read-out: IC50 of fibrosis inhibition): 4.25 µM
SMILES: CCc1oc2ccccc2c1C(=O)c1cc(Br)c(O)c(Br)c1 [benzbromarone, (3,5-dibromo-4-hydroxyphenyl)-(2-ethyl-1-benzofuran-3-yl)methanone]
degree of fibrosis (Sirius Red, quantified) [1]: significantly reduced | degree of fibrosis (Sirius Red, quantified) (Hepatic stellate cell T6): significantly reduced | fibrosis by Sirius Red staining (morphology) ([2]; A549, 10 ng/ml TGF-β1 co-treatment, 30 μM): fibrosis was reduced | concentration at which the fibrosis inhibitory effect began to appear [3, 6]: 3 µM | concentration from which fibrosis was significantly inhibited [3, 6]: ≥ 10 µM | fibrosis by Sirius Red staining (morphology) ([3]; 10 ng/ml TGF-β1 co-treatment, 30 μM): fibrosis was reduced | content of 4-hydroxyproline in liver tissue [4]: statistically significantly reduced | plasma alanine aminotransferase (ALT) [4]: Statistically significant decreases | plasma bilirubin [4]: Statistically significant decreases | fibrosis area of liver tissue ([4]; versus obeticholic acid 30 mg/kg): comparable result with fibrosis inhibition as the obeticholic acid (OCA) treatment group | scar extent compared to positive control triamcinolone 0.1% [5]: reduced | scar size and wound extent compared to control group (Vehicle) [5]: significantly reduced | hypertrophy of the dermis layer (scar tissue thickness, H&E) ([5]; versus other groups): lowest
